Holding throughout (assay): Post-emergence foliage spray, pot culture, fresh weight inhibition (Tables 1-48, 51-98, 101-148; 24 days)
What all share (assay type): in vivo

One experiment deals with Acalypha australis. From the text: Table 1-48, 51-98, 101-148: Echinochloa crusgalli var. zelayensis, Eclipta prostrate, Galium aparine L., Alopecurus aequalis, Alopecurus japonicus, Lindernia procumbens, Veronica persica^1, Malachium aquaticum, Beckmannia syzigachne, Stellaria media were collected in Huai'an of Jiangsu Province; Commelina communis, Sonchus arvensis, Setaria glauca, Chloris virgata, Setaria faberi, Sonchus oleraceus L., Echinochloa oryzoides, Cirsium setosum, Xanthium strumarium were collected in Qiqiha'er of Heilongjiang Province; Sinapis arvensis, Veronica persica^2 were collected in Zhumadian of Henan Province; Ludwigia prostrate, Ammannia arenaria were collected in Zhuji of Zhejiang Province; Amaranthus retrojlexus, Descurainia sophia, Digitaria sanguinalis, Setaria viridis, Conyza Canadensis, Capsella bursa-pastoris, Eleusine indica, Ipomoea purpurea, Abutilon theophrasti, Chenopodium album, Acalypha australis, Solanum nigrum were collected in Qingdao of Shandong Province; Echinochloa caudate were collected in Pingluo of Ningxia Province.
The above weeds were cultivated by a pot culture method. […] Full and uniform weed seeds were selected, soaked in warm water at 25° C. for 6 hours, and germinated in a 28° C. biochemical incubator (darkness). The weed seeds that had just germinatedwere evenly placed on the surface of the soil and then covered with 0.5-1 cm soil according to the sizes of seeds.
The culture was carried out in a controllable sunlight greenhouse at 20 to 30° C., in natural light, and relative humidity of 57% to 72%.
The technical materials were all dissolved in acetone, and diluted with an aqueous solution containing 0.1% emulsifier Tween-80. The dilution is performed as required.
A ratio of the active ingredient A to the active ingredient B and amounts thereof in each group depends on the characteristics and toxicity of the two agents, as well as the main application purpose of a corresponding formulation. Based on the pre-tests in this study, the dosage of the active ingredient A and B applied alone and in combination were shown in the tables. Water containing the solvent and emulsifier same with the above groups but free of the agents was used as a blank control.
Table 1-48, 51-98, 101-148, 151-206: […] per treatment, that is, a total of 60 weeds were treated in one treatment.
Table 1-48, 51-98, 101-148: The agents were used for only once in the experiment. In the stage of weeds with 3˜4 leaves, the weeds were thinned out to maintain 15 weeds per pot and 45 weeds for each treatment, then continued to be cultured to 5˜6 leaves stage of grassy weeds, 6˜7 leaves stage of broadleaf weeds, and treated.
The well-cultured weeds were evenly placed on a platform with an area of 0.5 m^2, and a solution of agents was sprayed on the stems and leaves thereof by the 3WP-2000-type walking spray tower at a dosage of 450 kg/ha and at a spray pressure of 0.3 MPa. After all the solution was sprayed, the valve was closed. After 30 seconds, the door of the spray tower was opened, and the nutritional bowl was taken out. Then the valve was opened, and the spray tube was cleaned by spraying 50 ml of water.
A pot-culture method was employed. For the cultivation of weeds, please refer to the Section 1.1), and “Pesticide guidelines for laboratory bioactivity tests—herbicides”. As to a method for applying agents, please refer to the section 2.3.2), that is, a foliage treatment was employed. After the treatment, the weeds were routinely cultured in a greenhouse.
A method for investigating absolute number was employed, wherein whole seedlings of survival weeds were cut off with a blade along the soil surface, and the fresh weight of the weeds was weighed with an analytical balance. For dead weeds, the fresh weight thereof was zero.
Table 1-48, 51-98, 101-148, 207-216: The investigation was performed after 24 days of the treatment for only once.

A further experiment concerns Chenopodium album. An outline of the steps:
(§1)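 Pot-grown weeds were thinned to 15 per pot (45 per treatment) and sprayed on foliage at the 5–6-leaf stage for grasses or the 6–7-leaf stage for broadleaves. Agents were dissolved in acetone with 0.1% Tween-80 and applied at 450 kg/ha spray volume and 0.3 MPa. Plants were then kept in a greenhouse. Above-ground fresh weight of survivors, with dead plants counted as zero, gave inhibition versus a solvent/emulsifier blank.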

The test system of experiment [1] is Echinochloa crusgalli var. zelayensis. The conditions noted are these: Echinochloa crus-galli, 576 h, read-out: Control effect (%) of B applied alone in corresponding dose. An outline of the steps: as §1
A further experiment deals with Echinochloa oryzoides. The settings on record: Echinochloa oryzoides, 576 h, read-out: Control effect (%) of B applied alone in corresponding dose. In short, it runs like this: as §1
The test system of the next experiment is Echinochloa caudate. The conditions noted are these: Echinochloa, 576 h, read-out: Control effect (%) of B applied alone in corresponding dose. An outline of the steps:
as §1

Setting [2] is: foliar, B 1.875 g a.i./ha, foliage spray, 24 days.
[3] abbreviates: foliar, B 3.75 g a.i./ha, foliage spray, 24 days.
Setting [4] is: foliar, B 7.5 g a.i./ha, foliage spray, 24 days.
[5] abbreviates: foliar, B 15 g a.i./ha, foliage spray, 24 days.

Where two headings read alike, the source gives them in different places.

The values below come from US20220264878A1, “HERBICIDAL COMPOSITION CONTAINING R-TYPE PYRIDYLOXY CARBOXYLIC ACID DERIVATIVE AND USE THEREOF” (Qingdao Kingagroot Chemical Compound Co., Ltd., priority 2019, published 2022).

Consider `N#Cc1cc(Br)c(O)c(Br)c1` [bromoxynil], for which the “Control effect (%) of B applied alone in corresponding dose” value (shortened to “Control effect (%) of B applied alone”) in the experiment on Acalypha australis (B 18.75 g a.i./ha) was found to be 4.6%; with Acalypha australis (B 37.5 g a.i./ha), 10.6%; with Acalypha australis (B 75 g a.i./ha), 58.9%; in the experiment on Acalypha australis (B 150 g a.i./ha) it was 84.0%; in the experiment on Chenopodium album (bromoxynil 18.75 g a.i./ha) it was 3.1%; in the experiment with Chenopodium album (bromoxynil 37.5 g a.i./ha), 10.8%. The “Control effect (%) of B applied alone” value in the experiment with Chenopodium album (bromoxynil 75 g a.i./ha) is on record as 57.7%; in the experiment on Chenopodium album (bromoxynil 150 g a.i./ha), 83.6%.
As to `O=C(O)COC(=O)c1cc(Oc2ccc(C(F)(F)F)cc2Cl)ccc1[N+](=O)[O-]` [fluoroglycofen], the “Control effect (%) of B applied alone” value with Acalypha australis (B 0.9375 g a.i./ha) is 4.0%; in the experiment on Acalypha australis (B 1.875 g a.i./ha), 15.7%; with Acalypha australis (B 3.75 g a.i./ha), 41.6%; with Acalypha australis (B 7.5 g a.i./ha) it was 71.4%; in the experiment with Chenopodium album (Table 92, 0.9375 g a.i./ha), 2.3%; with Chenopodium album (Table 92, 1.875 g a.i./ha), 12.8%. Further, the “Control effect (%) of B applied alone” value in the experiment with Chenopodium album (Table 92, 3.75 g a.i./ha) amounted to 40.0%; with Chenopodium album (Table 92, 7.5 g a.i./ha), 70.6%.
For `COc1cnc(OC)n2nc(NS(=O)(=O)c3c(OCC(F)F)cccc3C(F)(F)F)nc12` [penoxsulam], the pest or weed control at 1.875 g/ha in experiment [1] (setting [2]) stood at 2.4%; with Echinochloa oryzoides (Table 101, 1.875 g a.i./ha), 4.7%; in the experiment on Echinochloa caudate (penoxsulam 1.875 g a.i./ha), 3.8%. For the same compound, the pest or weed control at 3.75 g/ha in experiment [1] (setting [3]) was 10.9%; in the experiment on Echinochloa oryzoides (Table 101, 3.75 g a.i./ha), 13.8%; with Echinochloa caudate (penoxsulam 3.75 g a.i./ha), 15.6%. The pest or weed control at 7.5 g/ha in experiment [1] (setting [4]) amounted to 48.8%; in the experiment on Echinochloa oryzoides (Table 101, 7.5 g a.i./ha), 47.9%; with Echinochloa caudate (penoxsulam 7.5 g a.i./ha), 46.5%. Besides, the pest or weed control at 15 g/ha is 70.1% in experiment [1] (setting [5]); 68.4% in the experiment with Echinochloa oryzoides (Table 101, 15 g a.i./ha); 69.4% in the experiment on Echinochloa caudate (penoxsulam 15 g a.i./ha).
On to `CCS(=O)(=O)c1cccnc1S(=O)(=O)NC(=O)Nc1nc(OC)cc(OC)n1` [rimsulfuron], for which the pest or weed control at 1.875 g/ha in experiment [1] (setting [2]) came out at 7.7%; in the experiment on Echinochloa oryzoides (Table 106, 1.875 g a.i./ha) it was 10.3%; in the experiment on Echinochloa caudate (rimsulfuron 1.875 g a.i./ha), 5.5%. Also, the pest or weed control at 3.75 g/ha in experiment [1] (setting [3]) worked out at 25.5%; in the experiment with Echinochloa oryzoides (Table 106, 3.75 g a.i./ha) it was 26.9%; with Echinochloa caudate (rimsulfuron 3.75 g a.i./ha) it was 25.3%. The pest or weed control at 7.5 g/ha was 39.7% in experiment [1] (setting [4]); 43.7% with Echinochloa oryzoides (Table 106, 7.5 g a.i./ha); 37.9% with Echinochloa caudate (rimsulfuron 7.5 g a.i./ha). The pest or weed control at 15 g/ha came to 67.7% in experiment [1] (setting [5]); 69.6% in the experiment with Echinochloa oryzoides (Table 106, 15 g a.i./ha); 65.8% in the experiment with Echinochloa caudate (rimsulfuron 15 g a.i./ha).
Turning to `Cc1nn(-c2cc(NS(C)(=O)=O)c(Cl)cc2Cl)c(=O)n1C(F)F` [sulfentrazone], the pest or weed control at 1.875 g/ha in experiment [1] (sulfentrazone 1.875 g a.i./ha) came to 2.8%; in the experiment with Echinochloa oryzoides (B 1.875 g a.i./ha), 5.8%; in the experiment with Echinochloa caudate (Table 97, 1.875 g a.i./ha), 6.6%. Besides, the pest or weed control at 3.75 g/ha came out at 15.4% in experiment [1] (sulfentrazone 3.75 g a.i./ha); 18.1% in the experiment on Echinochloa oryzoides (B 3.75 g a.i./ha); 10.8% in the experiment with Echinochloa caudate (Table 97, 3.75 g a.i./ha). Further, the pest or weed control at 7.5 g/ha in experiment [1] (sulfentrazone 7.5 g a.i./ha) amounted to 26.9%; in the experiment on Echinochloa oryzoides (B 7.5 g a.i./ha) it was 29.7%; in the experiment on Echinochloa caudate (Table 97, 7.5 g a.i./ha) it was 24.5%. For the same compound, the pest or weed control at 15 g/ha in experiment [1] (sulfentrazone 15 g a.i./ha) stood at 54.1%; in the experiment with Echinochloa oryzoides (B 15 g a.i./ha), 56.1%; in the experiment with Echinochloa caudate (Table 97, 15 g a.i./ha) it was 52.6%.
